The text below walks through data of patent US20240400521A1, “QUINAZOLINE COMPOUND, COMPOSITION, AND APPLICATION THEREOF” (BEIJING SCITECH-MQ PHARMACEUTICALS LIMITED, priority 2021, published 2024).

Broadly, the IC50 is the midpoint of a concentration-inhibition curve. The low end stands for greater potency in that assay, the high end for weaker potency in that assay.

One assay concerns the target Ba/F3-EGFR-VIII cells (Homo sapiens, UniProt P00533, DELINS30-297G, cells depend on it). As to the kind of experiment: Inhibition of cell proliferation, CTG method, Ba/F3-EGFR-VIII. In kind it is cell-based. To be noted: 72 hours, read-out: Ba/F3 EGFRvIII IC50. The text has this: (§1) The present application examined the in vitro anti-proliferative activity of the compounds of the present disclosure against in vitro cultured HCC-827, Ba/F3-EGFR-VIII and Ba/F3 EGFR D770_N771insSVD cell lines by CTG method.
(§2) Reagents and consumables: RPMI1640 (ThermoFisher, Cat. No. C11875500BT); DMEM (ThermoFisher, C11995500BT); fetal bovine serum (Hyclone, Cat. No. SV30087.03); 0.25% trypsin-EDTA (ThermoFisher, Cat. No. 25200072); penicillin-streptomycin (Hyclone, Cat. No. SV30010); DMSO (Life Science, Cat. No. 0231-500ML); CTG assay kit (Promega, Cat. No. G9243); 96-well plate (Corning, Cat. No. 3599); multifunctional plate reader (Perkin Elmer, Cat. No. Envision)
(§3) Cell lines: HCC-827 (from ATCC), Ba/F3-EGFR-VIII and Ba/F3 EGFR D770_N771insSVD (all from KYinno Biotechnology (Beijing) Co., Ltd.); all of the above cells were cultured with RPMI1640 medium containing 10% fetal bovine serum, 100 U/mL penicillin, and 100 μg/mL streptomycin in the culture process, and HCC-827 was cultured with DMEM medium containing 10% fetal bovine serum, 100 U/mL penicillin, and 100 μg/mL streptomycin.
(§4) • 1. The assay compound was dissolved with DMSO to form a stock solution and a gradient dilution was performed, followed by dilution with the corresponding medium to obtain a solution with 5-fold working concentration. • 2. Cells in logarithmic growth phase were adjusted to specific cell densities by dilution with culture medium, and 80 μL of cell suspension was added to a 96-well plate, such that plating densities of cells of HCC-827, Ba/F3-EGFR-VIII and Ba/F3 EGFR D770_N771insSVD were all 3000 cells/well. The cells of Ba/F3-EGFR-VIII and Ba/F3 EGFR D770_N771insSVD were used directly in the next step (treatment with compound), whereas the HCC-827 needed to be cultured overnight in a 37° C., 5% carbon dioxide gas incubator to adhere to the wall, and then treated with compounds. • 3. 20 μL of compound solution was added to each well of the 96-well plate that had been inoculated with cells. The highest concentration of the assayed compound was 10 μM, 4-fold serial dilution, a total of 9 concentrations, and duplicate wells. A control group without compound was also set up. • 4. The cells were cultured for another 72 hours, and then cell viability was detected by CTG assay kit. Signal values were read with a multifunctional plate reader (Perkin Elmer). GraphPad Prism software was used to create a dose-response curve and IC50 was calculated.

Another assay concerns the target T1, EGFR^WT kinase (Homo sapiens, UniProt P00533).
T1 construct: purchased Carna Biosciences 08-115
As to the kind of experiment: EGFR^WT kinase assay (ULight peptide / Eu-PT66 antibody detection). It counts as biochemical. The text has this:
(§5) Reagents and consumables: ULight™-labeled Ploy GT Peptide (Perkin Elmer, Cat. No. TRF-0100-M); ULight™-labeled JAK-1 (Try1023) Peptide (Perkin Elmer, Cat. No. TRF-0121-M); Eu-W1024-labeled Anti-Phosphotyrosine Antibody (PT66) (Perkin Elmer, Cat. No. AD0068); 10×Detection Buffer (Perkin Elmer, Cat. No. CR97-100); HER2 Kinase (Carna Biosciences, Cat. No. 08-016); EGFR kinase (Carna Biosciences, Cat. No. 08-115); HEPES (GIBCO, Cat. No. 15630-080); EGTA (Sigma, Cat. No. 03777-10G); EDTA (Sigma, Cat. No. EDS-100G); MgCl2 (Sigma, Cat. No. 63069-100ML); DTT (Sigma, Cat. No. 43816-10ML); Tween-20 (Sigma, Cat. No. P7949-100ML); DMSO (Life Science, Cat. No. 0231-500ML); 384-well plates (Perkin Elmer, Cat. No. 607290); multifunctional plate reader (Perkin Elmer, Cat. No. Envision)
(§6) Preparation of compound solution: The assay compound was dissolved in DMSO to form a 10 mM stock solution. Prior to use, the compound was diluted to 0.25 mM in DMSO (100 times the final concentration of the diluent) and then subjected to a 3-fold concentration gradient dilution to obtain a total of 11 concentrations. The solution was diluted with buffer to a diluent with 4× the final concentration when the drug was added.
(§7) EGFR^WT kinase assay: buffer was prepared, and 3.48 nM 4× EGFR kinase solution, 600 μM 4× ATP solution, and 400 nM 4×ULight™-labeled JAK-1 (Try1023) Peptide substrate solution was prepared using the buffer. After the preparation was completed, the enzyme was mixed with different concentrations of compounds pre-prepared by dilution, and the mixture was left to stand at room temperature for 5 min. Each concentration was performed in duplicate. The corresponding substrate and ATP were added and the mixture was reacted at room temperature for 120 minutes (with negative and positive controls). After completion of the reaction, PT66 detection antibody was added. The mixture was incubated at room temperature for 60 minutes, and then detected by Envision.
(§8) Data Calculation: the reading of well and inhibition rate were calculated using Excel, wherein reading of well=10000*(well EU665 value)/(well EU615 value), and inhibition rate=[(reading of positive control well−reading of assay well)/(reading of positive control well−reading of negative control well)]*100%. Compound concentrations and corresponding inhibition rates were input into GraphPad Prism for processing to calculate IC50 values.

Assay [1] concerns the target Ba/F3 EGFR D770_N771insSVD cells (Homo sapiens, UniProt P00533, DUP768-770, cells depend on it). As to the kind of experiment: Inhibition of cell proliferation, CTG method, Ba/F3 EGFR D770_N771insSVD. In kind it is cell-based. To be noted: 72 hours, read-out: Ba/F3 EGFR D770_N771insSVD IC50.
From the text: as §1, §2, §3, §4

The subject of another assay is HCC-827 cells. As to the kind of experiment: Inhibition of cell proliferation, CTG method, HCC-827. It counts as cell-based. Particulars: Homo sapiens, HCC827, 72 hours.
From the text: as §1, §2, §3, §4

A further assay addresses T2, HER2 kinase (Homo sapiens, UniProt P04626).
T2 construct: purchased Carna Biosciences 08-016
As to the kind of experiment: HER2 kinase assay (ULight peptide / Eu-PT66 antibody detection). It counts as biochemical.
From the text: as §5, §6
as §7, with “HER2 kinase” for “EGFR^WT kinase”, “and 40” for “and 3.48”, “4× HER2” for “4× EGFR”, “solution, 40” for “solution, 600”, “4×ULight™-labeled Ploy GT” for “4×ULight™-labeled JAK-1 (Try1023)”, “solution were” for “solution was”
as §8

Ba/F3-EGFR-VIII cells, sequence (P00533 with tags, fused parts or gaps DELINS30-297G): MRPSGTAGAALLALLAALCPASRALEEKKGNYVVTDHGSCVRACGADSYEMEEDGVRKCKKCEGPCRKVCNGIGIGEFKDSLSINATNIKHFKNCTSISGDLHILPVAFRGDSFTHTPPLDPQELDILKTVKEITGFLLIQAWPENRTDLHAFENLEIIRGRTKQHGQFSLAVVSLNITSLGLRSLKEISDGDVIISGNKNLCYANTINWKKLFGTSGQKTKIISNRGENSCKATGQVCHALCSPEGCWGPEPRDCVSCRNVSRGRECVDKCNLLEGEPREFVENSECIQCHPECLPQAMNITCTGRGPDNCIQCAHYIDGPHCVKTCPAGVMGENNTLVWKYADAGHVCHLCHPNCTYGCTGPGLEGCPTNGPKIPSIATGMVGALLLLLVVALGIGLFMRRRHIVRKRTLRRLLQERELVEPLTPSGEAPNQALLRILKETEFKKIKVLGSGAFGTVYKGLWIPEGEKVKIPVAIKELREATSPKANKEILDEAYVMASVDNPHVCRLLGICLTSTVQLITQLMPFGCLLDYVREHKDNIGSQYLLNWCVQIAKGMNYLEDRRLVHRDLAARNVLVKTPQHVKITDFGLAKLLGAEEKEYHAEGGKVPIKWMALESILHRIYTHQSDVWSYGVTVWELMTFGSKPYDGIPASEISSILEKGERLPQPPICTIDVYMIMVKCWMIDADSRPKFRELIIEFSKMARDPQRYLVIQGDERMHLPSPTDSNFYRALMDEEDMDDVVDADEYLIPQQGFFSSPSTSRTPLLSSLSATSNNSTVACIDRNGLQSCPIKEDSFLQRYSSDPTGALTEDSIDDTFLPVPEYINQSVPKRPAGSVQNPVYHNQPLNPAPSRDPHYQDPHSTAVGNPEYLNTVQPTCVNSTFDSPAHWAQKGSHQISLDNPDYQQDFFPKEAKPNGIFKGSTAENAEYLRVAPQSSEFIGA
T2 sequence (P04626 23-1255): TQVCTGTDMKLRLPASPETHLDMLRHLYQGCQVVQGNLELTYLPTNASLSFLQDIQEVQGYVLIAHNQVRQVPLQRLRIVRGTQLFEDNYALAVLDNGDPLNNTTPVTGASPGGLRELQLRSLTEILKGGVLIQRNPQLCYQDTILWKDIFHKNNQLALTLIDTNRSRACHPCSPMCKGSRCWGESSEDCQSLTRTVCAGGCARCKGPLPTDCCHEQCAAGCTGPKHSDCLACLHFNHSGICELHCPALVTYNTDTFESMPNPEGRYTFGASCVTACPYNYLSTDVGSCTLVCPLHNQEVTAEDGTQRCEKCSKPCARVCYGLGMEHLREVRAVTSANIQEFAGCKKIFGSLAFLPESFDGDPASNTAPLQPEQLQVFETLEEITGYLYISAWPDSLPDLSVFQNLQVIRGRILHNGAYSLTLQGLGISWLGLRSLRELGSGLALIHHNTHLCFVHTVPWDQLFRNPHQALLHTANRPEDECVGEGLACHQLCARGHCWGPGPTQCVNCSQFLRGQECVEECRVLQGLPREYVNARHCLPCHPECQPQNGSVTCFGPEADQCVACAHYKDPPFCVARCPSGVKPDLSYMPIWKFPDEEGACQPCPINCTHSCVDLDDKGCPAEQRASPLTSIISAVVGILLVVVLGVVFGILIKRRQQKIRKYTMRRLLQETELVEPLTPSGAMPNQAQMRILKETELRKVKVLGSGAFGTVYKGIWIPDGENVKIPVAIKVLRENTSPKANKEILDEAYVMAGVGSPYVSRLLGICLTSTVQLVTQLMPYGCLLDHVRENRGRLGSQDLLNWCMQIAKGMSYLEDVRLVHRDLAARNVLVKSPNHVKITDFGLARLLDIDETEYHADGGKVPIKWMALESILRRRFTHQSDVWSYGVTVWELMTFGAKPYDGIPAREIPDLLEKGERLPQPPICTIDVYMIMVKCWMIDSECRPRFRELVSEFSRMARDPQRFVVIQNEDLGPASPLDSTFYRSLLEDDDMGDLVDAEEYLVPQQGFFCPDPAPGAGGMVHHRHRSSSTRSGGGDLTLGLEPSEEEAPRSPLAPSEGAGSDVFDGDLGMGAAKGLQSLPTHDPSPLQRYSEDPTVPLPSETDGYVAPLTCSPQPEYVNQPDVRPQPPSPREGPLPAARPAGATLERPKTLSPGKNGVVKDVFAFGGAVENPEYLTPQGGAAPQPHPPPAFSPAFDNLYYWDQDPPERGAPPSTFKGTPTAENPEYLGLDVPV
T1 sequence (P00533 25-1210): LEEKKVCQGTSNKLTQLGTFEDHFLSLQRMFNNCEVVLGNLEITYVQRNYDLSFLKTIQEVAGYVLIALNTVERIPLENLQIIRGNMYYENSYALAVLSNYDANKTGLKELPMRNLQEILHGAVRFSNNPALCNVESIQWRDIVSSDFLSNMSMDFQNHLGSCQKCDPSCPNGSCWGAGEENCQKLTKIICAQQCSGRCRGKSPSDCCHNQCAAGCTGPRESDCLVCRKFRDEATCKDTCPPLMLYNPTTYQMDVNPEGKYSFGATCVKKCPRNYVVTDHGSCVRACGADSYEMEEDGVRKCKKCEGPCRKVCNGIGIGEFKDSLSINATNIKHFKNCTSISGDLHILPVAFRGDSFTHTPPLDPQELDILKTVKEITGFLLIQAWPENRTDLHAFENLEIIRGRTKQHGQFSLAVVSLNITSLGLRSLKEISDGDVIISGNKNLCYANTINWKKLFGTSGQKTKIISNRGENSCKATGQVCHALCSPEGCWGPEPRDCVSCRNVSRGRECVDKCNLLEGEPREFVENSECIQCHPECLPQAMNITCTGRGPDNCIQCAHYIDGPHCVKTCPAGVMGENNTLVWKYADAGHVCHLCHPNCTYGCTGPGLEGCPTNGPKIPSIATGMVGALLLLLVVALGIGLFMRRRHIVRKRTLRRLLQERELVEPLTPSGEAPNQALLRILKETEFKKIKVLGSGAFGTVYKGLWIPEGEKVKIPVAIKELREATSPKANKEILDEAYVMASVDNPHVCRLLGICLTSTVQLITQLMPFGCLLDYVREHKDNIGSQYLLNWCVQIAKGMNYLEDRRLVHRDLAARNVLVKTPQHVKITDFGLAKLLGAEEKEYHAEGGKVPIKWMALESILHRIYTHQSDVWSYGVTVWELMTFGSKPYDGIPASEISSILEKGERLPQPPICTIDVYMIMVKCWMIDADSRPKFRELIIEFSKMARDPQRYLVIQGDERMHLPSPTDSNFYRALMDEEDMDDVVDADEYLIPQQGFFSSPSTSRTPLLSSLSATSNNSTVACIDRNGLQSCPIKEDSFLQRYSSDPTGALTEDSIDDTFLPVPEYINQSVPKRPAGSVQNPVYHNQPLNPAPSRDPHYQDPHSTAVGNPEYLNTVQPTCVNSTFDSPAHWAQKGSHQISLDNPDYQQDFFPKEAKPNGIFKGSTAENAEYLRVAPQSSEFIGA
Ba/F3 EGFR D770_N771insSVD cells, sequence (P00533 with tags, fused parts or gaps DUP768-770): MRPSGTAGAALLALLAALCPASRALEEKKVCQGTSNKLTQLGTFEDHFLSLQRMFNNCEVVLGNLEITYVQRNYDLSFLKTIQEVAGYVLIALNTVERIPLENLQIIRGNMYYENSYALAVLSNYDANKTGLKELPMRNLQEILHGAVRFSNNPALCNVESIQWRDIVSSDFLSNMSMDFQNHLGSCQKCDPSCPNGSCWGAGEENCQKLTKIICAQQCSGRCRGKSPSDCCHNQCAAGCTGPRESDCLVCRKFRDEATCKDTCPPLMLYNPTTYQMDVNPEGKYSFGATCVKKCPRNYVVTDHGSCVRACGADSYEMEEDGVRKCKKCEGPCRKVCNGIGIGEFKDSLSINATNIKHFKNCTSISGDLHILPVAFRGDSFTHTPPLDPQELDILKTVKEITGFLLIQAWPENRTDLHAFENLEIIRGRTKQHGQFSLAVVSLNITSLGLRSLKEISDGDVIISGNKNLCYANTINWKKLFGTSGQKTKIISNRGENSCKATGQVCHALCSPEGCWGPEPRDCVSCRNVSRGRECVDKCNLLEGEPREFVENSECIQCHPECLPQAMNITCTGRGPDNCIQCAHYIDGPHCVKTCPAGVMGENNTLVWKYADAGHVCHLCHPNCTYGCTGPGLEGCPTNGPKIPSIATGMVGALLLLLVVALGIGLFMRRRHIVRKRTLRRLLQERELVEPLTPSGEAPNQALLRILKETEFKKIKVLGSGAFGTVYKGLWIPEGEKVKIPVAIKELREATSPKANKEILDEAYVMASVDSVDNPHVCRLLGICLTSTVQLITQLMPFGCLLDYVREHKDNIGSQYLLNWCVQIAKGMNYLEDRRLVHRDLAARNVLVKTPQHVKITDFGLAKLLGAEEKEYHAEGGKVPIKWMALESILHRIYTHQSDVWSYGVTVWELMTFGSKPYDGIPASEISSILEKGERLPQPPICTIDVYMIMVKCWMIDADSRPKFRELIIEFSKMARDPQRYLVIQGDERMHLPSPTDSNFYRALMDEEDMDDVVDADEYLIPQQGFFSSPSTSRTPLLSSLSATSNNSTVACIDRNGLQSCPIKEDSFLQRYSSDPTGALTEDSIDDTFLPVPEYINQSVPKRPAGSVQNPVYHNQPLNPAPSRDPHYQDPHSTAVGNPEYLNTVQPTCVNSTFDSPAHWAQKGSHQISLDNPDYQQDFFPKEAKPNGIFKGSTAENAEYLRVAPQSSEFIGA

On to `COc1c(NC(=O)/C=C/CN(C)C2CC2)ccc2ncnc(Nc3cccc(Cl)c3F)c12` [Example 2, (E)-N-(4-((3-chloro-2-fluorophenyl)amino)-5-methoxyquinazolin-6-yl)-4-(cyclopropyl(methyl)amino)but-2-enamide], for which the GI50 was 0.005 to 0.05 µM at Ba/F3-EGFR-VIII cells and 0.05 to 0.5 µM in assay [1]. For the same compound, the IC50 was 0.001 to 0.01 µM on EGFR^WT kinase, no more than 0.005 µM in the assay with HCC-827 cells and 0.1 to 1 µM at HER2 kinase.

As for `COCCOc1c(NC(=O)/C=C/CN(C)C)ccc2ncnc(Nc3cccc(Cl)c3F)c12` [Example 3, (E)-N-(4-((3-chloro-2-fluorophenyl)amino)-5-(2-methoxyethoxy)quinazolin-6-yl)-4-(dimethylamino)but-2-enamide], the GI50 was no more than 0.005 µM on Ba/F3-EGFR-VIII cells and 0.05 to 0.5 µM in assay [1]. Further, the values for the IC50 against EGFR^WT kinase, in the assay on HCC-827 cells and against HER2 kinase were no more than 0.001 µM, no more than 0.005 µM and 0.01 to 0.1 µM, respectively.

On to `CN(C)C/C=C/C(=O)Nc1ccc2ncnc(Nc3cccc(Cl)c3F)c2c1OCCF` [Example 4, (E)-N-(4-((3-chloro-2-fluorophenyl)amino)-5-(2-fluoroethoxy)quinazolin-6-yl)-4-(dimethylamino)but-2-enamide], for which the values for the GI50 (on Ba/F3-EGFR-VIII cells; in assay [1]) were 0.005 to 0.05 µM and 0.05 to 0.5 µM, respectively. The IC50 is no more than 0.001 µM against EGFR^WT kinase, no more than 0.005 µM with HCC-827 cells and 0.01 to 0.1 µM against HER2 kinase.

Take `CN(C)C/C=C/C(=O)Nc1ccc2ncnc(Nc3cccc(Cl)c3F)c2c1OCCO` [Example 5, (E)-N-(4-((3-chloro-2-fluorophenyl)amino)-5-(2-hydroxyethoxy)quinazolin-6-yl)-4-(dimethylamino)but-2-enamide]: the GI50 at Ba/F3-EGFR-VIII cells is no more than 0.005 µM; in assay [1], 0.005 to 0.05 µM. In addition, the IC50 against EGFR^WT kinase was no more than 0.001 µM; with HCC-827 cells it was no more than 0.005 µM; at HER2 kinase, 0.01 to 0.1 µM.

As to `COCCCOc1c(NC(=O)/C=C/CN(C)C)ccc2ncnc(Nc3cccc(Cl)c3F)c12` [Example 6, (E)-N-(4-((3-chloro-2-fluorophenyl)amino)-5-(3-methoxypropoxy)quinazolin-6-yl)-4-(dimethylamino)but-2-enamide], the GI50 is 0.005 to 0.05 µM at Ba/F3-EGFR-VIII cells and 0.05 to 0.5 µM in assay [1]. Moreover, the results for the IC50 against EGFR^WT kinase, with HCC-827 cells and against HER2 kinase were no more than 0.001 µM, no more than 0.005 µM and 0.1 to 1 µM, respectively.

On to `CN(C)C/C=C/C(=O)Nc1ccc2ncnc(Nc3cccc(Cl)c3F)c2c1OCCCS(C)(=O)=O` [Example 7, (E)-N-(4-((3-chloro-2-fluorophenyl)amino)-5-(3-(methylsulfonyl)propoxy)quinazolin-6-yl)-4-(dimethylamino)but-2-enamide], for which the GI50 on Ba/F3-EGFR-VIII cells was 0.005 to 0.05 µM. Besides, the IC50 was no more than 0.001 µM at EGFR^WT kinase, no more than 0.005 µM with HCC-827 cells and 0.1 to 1 µM on HER2 kinase.

For the compound `CSCCOc1c(NC(=O)/C=C/CN(C)C)ccc2ncnc(Nc3cccc(Cl)c3F)c12` [Example 12, (E)-N-(4-((3-chloro-2-fluorophenyl)amino)-5-(2-(methylthio)ethoxy)quinazolin-6-yl)-4-(dimethylamino)but-2-enamide], the GI50 on Ba/F3-EGFR-VIII cells is 0.005 to 0.05 µM. The IC50 against EGFR^WT kinase is no more than 0.001 µM; in the assay with HCC-827 cells, 0.005 to 0.05 µM; on HER2 kinase, 0.01 to 0.1 µM.

Regarding `COc1c(NC(=O)/C=C/[C@H]2CCCN2C)ccc2ncnc(Nc3ccc(Cl)c(Cl)c3F)c12` [Example 20, (R,E)-N-(4-((3,4-dichloro-2-fluorophenyl)amino)-5-methoxyquinazolin-6-yl)-3-(1-methylpyrrolidin-2-yl)acrylamide], the results for the half-inhibitory concentration (IC50) on EGFR^WT kinase, in the assay on HCC-827 cells and at HER2 kinase were no more than 0.001 µM, no more than 0.005 µM and 0.001 to 0.01 µM, respectively. Further, in assay [1], the GI50 lay in the range of 0.05 to 0.5 µM.

Consider `CN(C)C/C=C/C(=O)Nc1ccc2ncnc(Nc3ccc(Cl)c(Cl)c3F)c2c1OCCO` [Example 21, (E)-N-(4-((3,4-dichloro-2-fluorophenyl)amino)-5-(2-hydroxyethoxy)quinazolin-6-yl)-4-(dimethylamino)but-2-enamide], for which the results for the IC50 at EGFR^WT kinase, with HCC-827 cells and at HER2 kinase were no more than 0.001 µM, no more than 0.005 µM and 0.01 to 0.1 µM, respectively. Also, the GI50 in assay [1] lay in the range of 0.005 to 0.05 µM.

As to `CN1CCC[C@@H]1/C=C/C(=O)Nc1ccc2ncnc(Nc3ccc(Cl)c(Cl)c3F)c2c1OCCO` [Example 22, (R,E)-N-(4-((3,4-dichloro-2-fluorophenyl)amino)-5-(2-hydroxyethoxy)quinazolin-6-yl)-3-(1-methylpyrrolidin-2-yl)acrylamide], the IC50 is no more than 0.001 µM at EGFR^WT kinase, no more than 0.005 µM with HCC-827 cells and 0.001 to 0.01 µM at HER2 kinase. The GI50 in assay [1] lay in the range of 0.005 to 0.05 µM.

With `COCCOc1c(NC(=O)/C=C/CN(C)C)ccc2ncnc(Nc3ccc(Cl)c(Cl)c3F)c12` [Example 23, (E)-N-(4-((3,4-dichloro-2-fluorophenyl)amino)-5-(2-methoxyethoxy)quinazolin-6-yl)-4-(dimethylamino)but-2-enamide], the figures for the IC50 against EGFR^WT kinase, in the assay with HCC-827 cells and at HER2 kinase were no more than 0.001 µM, no more than 0.005 µM and 0.01 to 0.1 µM, respectively. Further, the GI50 in assay [1] fell in the range of 0.05 to 0.5 µM.

For `COCCOc1c(NC(=O)/C=C/[C@H]2CCCN2C)ccc2ncnc(Nc3ccc(Cl)c(Cl)c3F)c12` [Example 24, (R,E)-N-(4-((3,4-dichloro-2-fluorophenyl)amino)-5-(2-methoxyethoxy)quinazolin-6-yl)-3-(1-methylpyrrolidin-2-yl)acrylamide], the IC50 is no more than 0.001 µM against EGFR^WT kinase, no more than 0.005 µM in the assay on HCC-827 cells and 0.01 to 0.1 µM at HER2 kinase. The GI50 in assay [1] lay within 0.05 to 0.5 µM.
